Reference: patent US20260262643A1, “HERBICIDAL BENZOXAZINES” (FMC CORPORATION, priority 2022, published 2026)

What was measured:
soybean [1] = test: Test C preemergence; assay type: in vivo, Glycine max; details: 0 to 100 scale (0 no effect, 100 complete control); for Plant response rating, Soybean: Preemergence, 500 g ai/ha, visual rating after 10 days; for Soybean plant response rating: Test C, preemergence, 125 g ai/ha
Procedure, shortened: (§1)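 Soil-applied (pre) and foliar (post, 1–2 leaf, 2–10 cm) sprays; surfactant-containing non-phytotoxic solvent vehicle; loam/sand substrate. Readout: visual % control at 10 d, greenhouse, versus untreated.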

wheat [2] = test: Test C postemergence; assay type: in vivo, Triticum aestivum; details: 10 days
Procedure, shortened: as §1

ryegrass, Italian [3] = test: Test C preemergence; assay type: in vivo, Lolium multiflorum; details: 0 to 100 scale (0 no effect, 100 complete control); for Plant response rating, Ryegrass, Italian: Preemergence, 500 g ai/ha, visual rating after 10 days; for Ryegrass, Italian plant response rating: Test C, preemergence, 125 g ai/ha
Procedure, shortened: as §1

oat, wild [4] = test: Test C postemergence; assay type: in vivo, Avena fatua; details: 10 days
Procedure, shortened: as §1

oat, wild [5] = test: Test C preemergence; assay type: in vivo, Avena fatua; details: 0 to 100 scale (0 no effect, 100 complete control); for Plant response rating, Oat, Wild: Preemergence, 500 g ai/ha, visual rating after 10 days; for Oat, Wild plant response rating: Test C, preemergence, 125 g ai/ha
Procedure, shortened: as §1

pigweed, palmer [6] = test: Test C preemergence; assay type: in vivo, Amaranthus palmeri; details: 0 to 100 scale (0 no effect, 100 complete control); for Plant response rating, Pigweed, Palmer: Preemergence, 500 g ai/ha, visual rating after 10 days; for Pigweed, Palmer plant response rating: Test C, preemergence, 125 g ai/ha
Procedure, shortened: as §1

corn [7] = test: Test C postemergence; assay type: in vivo, Zea mays; details: 10 days
Procedure, shortened: as §1

blackgrass [8] = test: Test C preemergence; assay type: in vivo, Alopecurus myosuroides; details: 0 to 100 scale (0 no effect, 100 complete control); for Plant response rating, Blackgrass: Preemergence, 500 g ai/ha, visual rating after 10 days; for Blackgrass plant response rating: Test C, preemergence, 125 g ai/ha
Procedure, shortened: as §1

ducksalad = test: Test D flooded paddy test; assay type: in vivo, Heteranthera limosa; details: 250 g ai/ha, applied to paddy water, visual rating after 13 to 14 days, scale 0 to 100 (0 no effect, 100 complete control)
Procedure, shortened: (§2)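 Rating scale 0–100 (0 no effect, 100 complete control), visual, versus controls. Readout at 13–14 days after in-water application to 2-leaf plants in pots flooded 3 cm deep.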

kochia [9] = test: Test C postemergence; assay type: in vivo, Bassia scoparia; details: 10 days
Procedure, shortened: as §1

kochia [10] = test: Test C preemergence; assay type: in vivo, Bassia scoparia; details: 0 to 100 scale (0 no effect, 100 complete control); for Plant response rating, Kochia: Preemergence, 500 g ai/ha, visual rating after 10 days; for Kochia plant response rating: Test C, preemergence, 125 g ai/ha
Procedure, shortened: as §1

sedge, umbrella = test: Test D flooded paddy test; assay type: in vivo, Cyperus difformis; details: 250 g ai/ha, applied to paddy water, visual rating after 13 to 14 days, scale 0 to 100 (0 no effect, 100 complete control)
Procedure, shortened: as §2

soybean [11] = test: Test C postemergence; assay type: in vivo, Glycine max; details: 10 days
Procedure, shortened: as §1

pigweed, palmer [12] = test: Test C postemergence; assay type: in vivo, Amaranthus palmeri; details: 10 days
Procedure, shortened: as §1

ragweed [13] = test: Test C postemergence; assay type: in vivo, Ambrosia artemisiifolia; details: 10 days
Procedure, shortened: as §1

ryegrass, Italian [14] = test: Test C postemergence; assay type: in vivo, Lolium multiflorum; details: 10 days
Procedure, shortened: as §1

corn [15] = test: Test C preemergence; assay type: in vivo, Zea mays; details: 0 to 100 scale (0 no effect, 100 complete control); for Plant response rating, Corn: Preemergence, 500 g ai/ha, visual rating after 10 days; for Corn plant response rating: Test C, preemergence, 125 g ai/ha
Procedure, shortened: as §1

green foxtail [16] = test: Test C postemergence; assay type: in vivo, Setaria viridis; details: 10 days
Procedure, shortened: as §1

horseweed = test: Test C postemergence; assay type: in vivo, Erigeron canadensis; details: 10 days
Procedure, shortened: as §1

rice = test: Test D flooded paddy test; assay type: in vivo, Oryza sativa; details: 250 g ai/ha, applied to paddy water, visual rating after 13 to 14 days, scale 0 to 100 (0 no effect, 100 complete control)
Procedure, shortened: as §2

green foxtail [17] = test: Test C preemergence; assay type: in vivo, Setaria viridis; details: 0 to 100 scale (0 no effect, 100 complete control); for Plant response rating, Foxtail, Green: Preemergence, 500 g ai/ha, visual rating after 10 days; for Foxtail, Green plant response rating: Test C, preemergence, 125 g ai/ha
Procedure, shortened: as §1

barnyardgrass [18] = test: Test D flooded paddy test; assay type: in vivo, Echinochloa crus-galli; details: 250 g ai/ha, applied to paddy water, visual rating after 13 to 14 days, scale 0 to 100 (0 no effect, 100 complete control)
Procedure, shortened: as §2

barnyardgrass [19] = test: Test C postemergence; assay type: in vivo, Echinochloa crusgalli; details: 10 days
Procedure, shortened: as §1

ragweed [20] = test: Test C preemergence; assay type: in vivo, Ambrosia artemisiifolia; details: 0 to 100 scale (0 no effect, 100 complete control); for Plant response rating, Ragweed: Preemergence, 500 g ai/ha, visual rating after 10 days; for Ragweed plant response rating: Test C, preemergence, 125 g ai/ha
Procedure, shortened: as §1

galium = test: Test C postemergence; assay type: in vivo, Galium aparine; details: 10 days
Procedure, shortened: as §1

barnyardgrass [21] = test: Test C preemergence; assay type: in vivo, Echinochloa crusgalli; details: 0 to 100 scale (0 no effect, 100 complete control); for Plant response rating, Barnyardgrass: Preemergence, 500 g ai/ha, visual rating after 10 days; for Barnyardgrass plant response rating: Test C, preemergence, 125 g ai/ha
Procedure, shortened: as §1

blackgrass [22] = test: Test C postemergence; assay type: in vivo, Alopecurus myosuroides; details: 10 days
Procedure, shortened: as §1

wheat [23] = test: Test C preemergence; assay type: in vivo, Triticum aestivum; details: 0 to 100 scale (0 no effect, 100 complete control); for Plant response rating, Wheat: Preemergence, 500 g ai/ha, visual rating after 10 days; for Wheat plant response rating: Test C, preemergence, 125 g ai/ha
Procedure, shortened: as §1

[24] = 125 g ai/ha, postemergence, 0 to 100 scale, 0 no effect, 100 complete control
[25] = Postemergence, 500 g ai/ha, visual 0 to 100 scale (0 no effect, 100 complete control)

COc1ccc(-n2cnc(C(C)C)n2)cc1C(=O)N1C[C@H](C)Oc2c(C)cccc21 [Compound 210]
Plant response rating, Soybean (soybean [1]): 100 | Soybean plant response rating (soybean [1]): 90 | Plant response rating, Wheat (wheat [2]; [24]): 50 | Plant response rating, Wheat (wheat [2]; [25]): 90 | Plant response rating, Ryegrass, Italian (ryegrass, Italian [3]): 100 | Ryegrass, Italian plant response rating (ryegrass, Italian [3]): 100 | Plant response rating, Oat, Wild (oat, wild [4]; [24]): 80 | Plant response rating, Oat, Wild (oat, wild [4]; [25]): 80 | Plant response rating, Oat, Wild (oat, wild [5]): 90 | Oat, Wild plant response rating (oat, wild [5]): 60 | Plant response rating, Pigweed, Palmer (pigweed, palmer [6]): 100 | Pigweed, Palmer plant response rating (pigweed, palmer [6]): 100 | Plant response rating, Corn (corn [7]; [24]): 80 | Plant response rating, Corn (corn [7]; [25]): 90 | Plant response rating, Blackgrass (blackgrass [8]): 100 | Blackgrass plant response rating (blackgrass [8]): 80 | Plant response rating, Ducksalad (Flood) (ducksalad): 85 | Plant response rating, Kochia (kochia [9]; [24]): 70 | Plant response rating, Kochia (kochia [9]; [25]): 90 | Plant response rating, Kochia (kochia [10]): 100 | Kochia plant response rating (kochia [10]): 90 | Plant response rating, Sedge, Umbrella (Flood) (sedge, umbrella): 100 | Plant response rating, Soybean (soybean [11]; [24]): 0 | Plant response rating, Soybean (soybean [11]; [25]): 10 | Plant response rating, Pigweed, Palmer (pigweed, palmer [12]; [24]): 90 | Plant response rating, Pigweed, Palmer (pigweed, palmer [12]; [25]): 100 | Plant response rating, Ragweed (ragweed [13]; [24]): 60 | Plant response rating, Ragweed (ragweed [13]; [25]): 80 | Plant response rating, Ryegrass, Italian (ryegrass, Italian [14]; [24]): 60 | Plant response rating, Ryegrass, Italian (ryegrass, Italian [14]; [25]): 90 | Plant response rating, Corn (corn [15]): 60 | Corn plant response rating (corn [15]): 30 | Plant response rating, Foxtail, Green (green foxtail [16]; [24]): 90 | Plant response rating, Foxtail, Green (green foxtail [16]; [25]): 90 | Plant response rating, Horseweed (horseweed; [24]): 80 | Plant response rating, Horseweed (horseweed; [25]): 80 | Plant response rating, Rice (Flood) (rice): 15 | Plant response rating, Foxtail, Green (green foxtail [17]): 100 | Foxtail, Green plant response rating (green foxtail [17]): 100 | Plant response rating, Barnyardgrass (Flood) (barnyardgrass [18]): 20 | Plant response rating, Barnyardgrass (barnyardgrass [19]; [24]): 50 | Plant response rating, Barnyardgrass (barnyardgrass [19]; [25]): 100 | Plant response rating, Ragweed (ragweed [20]): 80 | Ragweed plant response rating (ragweed [20]): 30 | Plant response rating, Galium (galium; [24]): 100 | Plant response rating, Galium (galium; [25]): 100 | Plant response rating, Barnyardgrass (barnyardgrass [21]): 100 | Barnyardgrass plant response rating (barnyardgrass [21]): 100 | Plant response rating, Blackgrass (blackgrass [22]; [24]): 90 | Plant response rating, Blackgrass (blackgrass [22]; [25]): 90 | Plant response rating, Wheat (wheat [23]): 90 | Wheat plant response rating (wheat [23]): 90

CC(C)c1ncn(-c2ccc(S(=O)(=O)C(F)(F)F)c(C(=O)N3C[C@H](C)Oc4c(Cl)cccc43)c2)n1 [Compound 229]
Plant response rating, Soybean (soybean [1]): 0 | Soybean plant response rating (soybean [1]): 0 | Plant response rating, Wheat (wheat [2]; [24]): 0 | Plant response rating, Wheat (wheat [2]; [25]): 0 | Plant response rating, Ryegrass, Italian (ryegrass, Italian [3]): 10 | Ryegrass, Italian plant response rating (ryegrass, Italian [3]): 0 | Plant response rating, Oat, Wild (oat, wild [4]; [24]): 0 | Plant response rating, Oat, Wild (oat, wild [4]; [25]): 0 | Plant response rating, Oat, Wild (oat, wild [5]): 0 | Oat, Wild plant response rating (oat, wild [5]): 0 | Plant response rating, Pigweed, Palmer (pigweed, palmer [6]): 0 | Pigweed, Palmer plant response rating (pigweed, palmer [6]): 0 | Plant response rating, Corn (corn [7]; [24]): 0 | Plant response rating, Corn (corn [7]; [25]): 0 | Plant response rating, Blackgrass (blackgrass [8]): 0 | Blackgrass plant response rating (blackgrass [8]): 0 | Plant response rating, Ducksalad (Flood) (ducksalad): 0 | Plant response rating, Kochia (kochia [9]; [24]): 0 | Plant response rating, Kochia (kochia [9]; [25]): 0 | Plant response rating, Kochia (kochia [10]): 0 | Kochia plant response rating (kochia [10]): 0 | Plant response rating, Sedge, Umbrella (Flood) (sedge, umbrella): 0 | Plant response rating, Soybean (soybean [11]; [24]): 40 | Plant response rating, Soybean (soybean [11]; [25]): 40 | Plant response rating, Pigweed, Palmer (pigweed, palmer [12]; [24]): 0 | Plant response rating, Pigweed, Palmer (pigweed, palmer [12]; [25]): 0 | Plant response rating, Ragweed (ragweed [13]; [24]): 0 | Plant response rating, Ragweed (ragweed [13]; [25]): 0 | Plant response rating, Ryegrass, Italian (ryegrass, Italian [14]; [24]): 0 | Plant response rating, Corn (corn [15]): 0 | Corn plant response rating (corn [15]): 0 | Plant response rating, Foxtail, Green (green foxtail [16]; [24]): 0 | Plant response rating, Foxtail, Green (green foxtail [16]; [25]): 0 | Plant response rating, Horseweed (horseweed; [24]): 0 | Plant response rating, Horseweed (horseweed; [25]): 0 | Plant response rating, Rice (Flood) (rice): 0 | Plant response rating, Foxtail, Green (green foxtail [17]): 0 | Foxtail, Green plant response rating (green foxtail [17]): 0 | Plant response rating, Barnyardgrass (Flood) (barnyardgrass [18]): 0 | Plant response rating, Barnyardgrass (barnyardgrass [19]; [24]): 0 | Plant response rating, Barnyardgrass (barnyardgrass [19]; [25]): 0 | Plant response rating, Ragweed (ragweed [20]): 0 | Ragweed plant response rating (ragweed [20]): 0 | Plant response rating, Galium (galium; [24]): 0 | Plant response rating, Galium (galium; [25]): 0 | Plant response rating, Barnyardgrass (barnyardgrass [21]): 0 | Barnyardgrass plant response rating (barnyardgrass [21]): 0 | Plant response rating, Blackgrass (blackgrass [22]; [24]): 0 | Plant response rating, Blackgrass (blackgrass [22]; [25]): 0 | Plant response rating, Wheat (wheat [23]): 0 | Wheat plant response rating (wheat [23]): 0
